Data set [1] in a line: Liver microsome stability, human. In kind it is in vitro ADME. The settings on record: human liver microsomes 0.5 mg/ml, 1 uM compound; read-out: Liver Microsomes (t1/2, minutes) Human. The procedure:
(§1) In vitro pharmacokinetic analyses were performed in duplicate using standard methods by WuXi AppTec Co. Ltd. (Shanghai, China). Plasma protein binding was measured by equilibrium dialysis; % bound=(1−[free compound in dialysate]/[total compound in retentate])×100. Plasma stability of 2 uM compounds in clarified freeze-thawed plasma was assessed by LC-MS/MS of supernatants after protein precipitation; 120 min data are reported for studies including 0, 10, 30, 60, and 120 min. Liver microsome stability of 1 uM compounds in liver microsomes (0.5 mg/ml) after 0, 5, 10, 20, 30, 60 min. incubation was assessed by LC/MS/MS of reaction extracts.

Data set [2] in a line: Plasma protein binding by equilibrium dialysis, mouse. In kind it is in vitro ADME. To be noted: read-out: Plasma Protein Binding (Bound %) Mouse (converted). The procedure:
as §1

In the next data set the test system is mitofusin. The data set is described as follows: Dose-response of mitofusin agonist fusogenicity (mitochondrial aspect ratio) in Mfn1- or Mfn2-deficient MEFs. To be noted: Mfn1-KO or Mfn2-KO MEFs, compounds overnight, mitochondrial aspect ratio indexed to maximal response of Compound 35. In kind it is cell-based, mouse. The protocol: Dose-response of mitofusin agonist fusogenicity was performed in Mfn1- or Mfn2-deficient MEFs (Mfn1-KO or Mfn2-KO MEFs) cultured at 37° C. and 5% CO2-95% air. Cells were seeded on day 1 in 6 well plates at a density of 2×10^4 cells per well and compounds added at 9 concentrations (0.5 nM-10 μM dissolved in DMSO) overnight. Mitochondria were then stained with MitoTracker Orange (200 nM; M7510; Invitrogen, Carlsbad, CA, USA). Nuclei were stained with Hoescht (10 μg/ml; Invitrogen, Thermo Fisher Scientific Cat: #H3570). Images were acquired at room temperature on a Nikon Ti Confocal microscope using a 60×1.3 NA oil-immersion objective in Krebs-Henseleit buffer (138 NaCl, […] pH: 7.2-7.5, and 1 mM CaCl2). Laser excitation was 549 nm with emission at 590 nm for MitoTracker Orange and excitation at 306 nm with emission at 405 nm for Hoescht. Images were analyzed using ImageJ and fusogenicity quantified as mitochondrial aspect ratio (length/width), and were indexed to the maximal response elicited by Compound 35, a known mitofusin activator. Response curves were interpolated using the sigmoidal model using Prism 8 software. EC50 values are reported as mean with 95% confidence limits for at least 3 independent experiments.
(§2) Further testing details for the MFN activity and PAMPA are provided in U.S. Patent Applications 2020/0345668 and 2020/0345669, incorporated herein by reference above.

Data set [3] in a line: Passive artificial blood brain barrier membrane permeability assay (PAMPA-BBB). In kind it is in vitro ADME. To be noted: 10 μM compound, 1% porcine brain polar lipid extract/dodecane, room temperature. The protocol: Passive artificial blood brain barrier membrane permeability assay (PAMPA-BBB) were performed using 150 μL of 10 μM compounds (5% DMSO) added to PVDF membranes pre-coated with 5 μL of 1% brain polar lipid extract (Porcine)/dodecane mixture and incubated for 4 h at room temperature with shaking at 300 rpm. Donor and acceptor samples were analyzed by LC-MS/MS.
as §2

A short description of data set [4]: Liver microsome stability, mouse. In kind it is in vitro ADME. To be noted: mouse liver microsomes 0.5 mg/ml, 1 uM compound; read-out: Liver Microsomes (t1/2, minutes) Mouse. The procedure:
as §1

Data set [5] in a line: Plasma protein binding by equilibrium dialysis, human. In kind it is in vitro ADME. To be noted: read-out: Plasma Protein Binding (Bound %) Human (converted). The procedure:
as §1

SMILES strings stand for the structures.

For `O=C(CCCCCCCc1ccccc1)N1CCC(O)CC1` [Formula 10], the half-life at 1 uM worked out at 64.5 min in data set [1] and 28 min in data set [4]. The results for the fraction unbound in data set [2] and in data set [5] were 0.011 and 0.014, respectively. Also, in the data set with mitofusin, the EC50 stood at 12.2 nM. This compound also returned a Papp at 4 h, 10 μM in data set [3] of 143 ×10⁻⁶ cm/s.

Take `O=C(N[C@H]1C[C@@H]1OCCc1ccccc1)[C@H]1CC[C@H](O)CC1` [Formula 32A]: the half-life at 1 uM in data set [1] and in data set [4] was more than 145 min each time. Also, the fraction unbound in data set [2] was 0.279; in data set [5], 0.535. Moreover, the EC50 with mitofusin was determined as 10.5 nM. In addition, in data set [3], the Papp at 4 h, 10 μM was 5.43 ×10⁻⁶ cm/s.

Turning to `O=C(NCCCCCc1ccccc1)C1CCC(O)CC1` (centres unmarked) [Formula 26], the values for the half-life at 1 uM in data set [1] and in data set [4] were more than 145 min and 102 min, respectively. The fraction unbound in data set [2] is 0.071; in data set [5], 0.107. In addition, in the data set with mitofusin, the EC50 was 9.68 nM. Moreover, the apparent permeability coefficient (Papp) at 4 h, 10 μM in data set [3] worked out at 30.2 ×10⁻⁶ cm/s.

For `O=C(NC1CC1OCc1ccccc1)C1CCC(O)CC1` (centres unmarked) [Formula 33A], the half-life at 1 uM in data set [1] and in data set [4] was more than 145 min in each case. For the same compound, the fraction unbound is 0.361 in data set [2] and 0.626 in data set [5]. The EC50 in the data set on mitofusin stood at 10.8 nM. Also, the Papp at 4 h, 10 μM in data set [3] turned out to be 2.28 ×10⁻⁶ cm/s.

Regarding `O=C(NC1CC1OCCCc1ccccc1)C1CCC(O)CC1` (centres unmarked) [Formula 34A], the half-life at 1 uM in data set [1] and in data set [4] was more than 145 min each time. Further, the fraction unbound in data set [2] was 0.221; in data set [5], 0.37. The EC50 with mitofusin is 26.7 nM. Further, the Papp at 4 h, 10 μM in data set [3] worked out at 10.5 ×10⁻⁶ cm/s.

For the compound `O=C(NC1CC(CCCc2ccccc2)C1)C1CCC(O)CC1` (centres unmarked) [Formula 31A], the half-life at 1 uM in data set [1] came out at 110 min; in data set [4], 224 min. The results for the fraction unbound in data set [2] and in data set [5] were 0.029 and 0.042, respectively. For the same compound, the EC50 in the data set on mitofusin was 9 nM. The Papp at 4 h, 10 μM in data set [3] was 95.1 ×10⁻⁶ cm/s.

As for `O=C(CCCCCc1ccccc1)N1CCC(O)CC1` [Formula 9], the half-life at 1 uM in data set [1] was more than 145 min; in data set [4], 82.4 min. Besides, the fraction unbound in data set [2] is 0.088; in data set [5] it was 0.163. Moreover, the EC50 with mitofusin was more than 10000 nM. For the same compound, the Papp at 4 h, 10 μM in data set [3] is 96.1 ×10⁻⁶ cm/s.

Take `O=C(CCCCCCc1ccccc1)N1CCC(O)CC1` [Formula 7]: the half-life at 1 uM in data set [1] came out at 103 min; in data set [4], 52.5 min. Besides, the fraction unbound was 0.043 in data set [2] and 0.049 in data set [5]. In the data set with mitofusin, the EC50 amounted to 30.5 nM. The Papp at 4 h, 10 μM in data set [3] came out at 145 ×10⁻⁶ cm/s.

Turning to `O=C(NC1CC1CCCCc1ccccc1)C1CCC(O)CC1` (centres unmarked) [Formula 30A], the 50% effective concentration (EC50) with mitofusin came out at 5.3 nM. Also, the Papp at 4 h, 10 μM in data set [3] came out at 86.8 ×10⁻⁶ cm/s.

For `O=C(CCCCCCc1ccccc1)N1CCCC(O)C1` (centres unmarked) [Formula 8], the figures for the half-life at 1 uM in data set [1] and in data set [4] were 60.6 min and 22.5 min, respectively. For the same compound, the fraction unbound in data set [2] was 0.041; in data set [5] it was 0.034. Also, in the data set on mitofusin, the EC50 was more than 10000 nM. The same compound displayed a Papp at 4 h, 10 μM in data set [3] of 180 ×10⁻⁶ cm/s.

These data come from patent US12396968B2, “Mitofusin activators having an endocyclic-bonded carbonyl group and methods for use thereof” (priority 2022, dated 2025).
